# Reference: patent US11439618B2, “Compositions and methods for lowering triglycerides” (Amarin Pharmaceuticals Ireland Limited, priority 2009, dated 2022)
# Assay: Essential fatty acid (EFA) parameters in plasma and RBC, gas chromatography of fatty acid methyl esters
# Type: in vivo, human
# Procedure: Blood samples (10 mL) were collected at Visit 1 (screening) and at Visits 4, 5 and 6. Analysis was performed by MSR Lipid Analysis, Scottish Crop Research Institute, Dundee, UK. The screening sample acted as baseline for the EFA measurements. Lipid was extracted from plasma, serum and RBC suspensions and converted into fatty acid methyl esters which were analyzed by gas chromatography to give fatty acid profiles as micrograms fatty acid per gram of sample (μgFA/g) and normalized area percent.
# RBC and plasma EFA data were collected at baseline, Day 14, 28 and 42 and summarized by visit for each treatment group. Change from baseline and percent change from baseline were also summarized. ANCOVA comparison of ethyl-EPA dose groups and ethyl-EPA versus placebo was performed.
# Notable changes for these parameters occurred in the ethyl-EPA treatment groups at Days 14, 28 and 42 compared to placebo.
# [1] = plasma, 1 g daily group, Baseline
# [2] = plasma, 2 g daily group, Baseline
# [3] = plasma, 4 g daily group, Baseline
smiles,measurement,setting,value
"CC/C=C\C/C=C\C/C=C\C/C=C\C/C=C\CCCC(=O)OCC [Ethyl-EPA, all-cis eicosa-5,8,11,14,17-pentaenoic acid ethyl ester]","EPA, DPAn-3 and EPA/AA ratio values, change from baseline","plasma and RBC, to Day 42, 1, 2 and 4 g",increased substantially from baseline
same,"AA, DHA and DGLA values, change from baseline","plasma and RBC, to day 42, 1, 2 and 4 g",decreased substantially from baseline
same,AA Mean at Baseline,[1],202.5 µg/g
same,DGLA Mean at Baseline,[1],51.2 µg/g
same,DHA Mean at Baseline,[1],73.1 µg/g
same,DPAn-3 Mean at Baseline,[1],21.1 µg/g
same,EPA Mean at Baseline,[1],48.3 µg/g
same,EPA/AA Mean (SD) at Baseline,[1],0.2 (0.14)
same,AA Mean change from Baseline,"plasma, 1 g daily, Day 14",-9.7 µg/g
same,DGLA Mean change from Baseline,"plasma, 1 g daily, Day 14",-10.4 µg/g
same,DHA Mean change from Baseline,"plasma, 1 g daily, Day 14",-6.4 µg/g
same,DPAn-3 Mean change from Baseline,"plasma, 1 g daily, Day 14",7.5 µg/g
same,EPA Mean change from Baseline,"plasma, 1 g daily, Day 14",61.2 µg/g
same,EPA/AA Mean (SD) change from Baseline,"plasma, 1 g daily, Day 14",0.3 (0.4)
same,AA Mean change from Baseline,"plasma, 1 g daily, Day 28",-11.3 µg/g
same,DGLA Mean change from Baseline,"plasma, 1 g daily, Day 28",-10.6 µg/g
same,DHA Mean change from Baseline,"plasma, 1 g daily, Day 28",-6.6 µg/g
same,DPAn-3 Mean change from Baseline,"plasma, 1 g daily, Day 28",8.9 µg/g
same,EPA Mean change from Baseline,"plasma, 1 g daily, Day 28",60.3 µg/g
same,EPA/AA Mean (SD) change from Baseline,"plasma, 1 g daily, Day 28",0.3 (0.20)
same,AA Mean change from Baseline,"plasma, 1 g daily, Day 42",-8.7 µg/g
same,DGLA Mean change from Baseline,"plasma, 1 g daily, Day 42",-9.4 µg/g
same,DHA Mean change from Baseline,"plasma, 1 g daily, Day 42",-5.4 µg/g
same,DPAn-3 Mean change from Baseline,"plasma, 1 g daily, Day 42",11.3 µg/g
same,EPA Mean change from Baseline,"plasma, 1 g daily, Day 42",62.0 µg/g
same,EPA/AA Mean (SD) change from Baseline,"plasma, 1 g daily, Day 42",0.3 (0.24)
same,"AA LS Mean, 1 or 2 g versus 4 g","plasma, 1 g versus 4 g",4.2 µg/g
same,"DGLA LS Mean, 1 or 2 g versus 4 g","plasma, 1 g versus 4 g",3.7 µg/g
same,"DHA LS Mean, 1 or 2 g versus 4 g","plasma, 1 g versus 4 g",-0.8 µg/g
same,"DPAn-3 LS Mean, 1 or 2 g versus 4 g","plasma, 1 g versus 4 g",-15.1 µg/g
same,"EPA LS Mean, 1 or 2 g versus 4 g","plasma, 1 g versus 4 g",-111.8 µg/g
same,"EPA/AA LS Mean, 1 or 2 g versus 4 g","plasma, 1 g versus 4 g",−0.66
same,AA Mean at Baseline,[2],227.3 µg/g
same,DGLA Mean at Baseline,[2],53.5 µg/g
same,DHA Mean at Baseline,[2],75.1 µg/g
same,DPAn-3 Mean at Baseline,[2],19.7 µg/g
same,EPA Mean at Baseline,[2],4.49 µg/g
same,EPA/AA Mean at Baseline,[2],0.2
same,AA Mean change from Baseline,"plasma, 2 g daily, Day 14",-13.9 µg/g
same,DGLA Mean change from Baseline,"plasma, 2 g daily, Day 14",-14.1 µg/g
same,DHA Mean change from Baseline,"plasma, 2 g daily, Day 14",-5.4 µg/g
same,DPAn-3 Mean change from Baseline,"plasma, 2 g daily, Day 14",17.4 µg/g
same,EPA Mean change from Baseline,"plasma, 2 g daily, Day 14",124.6 µg/g
same,EPA/AA Mean change from Baseline,"plasma, 2 g daily, Day 14",0.6
same,AA Mean change from Baseline,"plasma, 2 g daily, Day 28",21.6 µg/g
same,DGLA Mean change from Baseline,"plasma, 2 g daily, Day 28",-16.2 µg/g
same,DHA Mean change from Baseline,"plasma, 2 g daily, Day 28",-8.1 µg/g
same,DPAn-3 Mean change from Baseline,"plasma, 2 g daily, Day 28",19.4 µg/g
same,EPA Mean change from Baseline,"plasma, 2 g daily, Day 28",142.2 µg/g
same,EPA/AA Mean change from Baseline,"plasma, 2 g daily, Day 28",0.8
same,AA Mean change from Baseline,"plasma, 2 g daily, Day 42",-27.3 µg/g
same,DGLA Mean change from Baseline,"plasma, 2 g daily, Day 42",-17.3 µg/g
same,DHA Mean change from Baseline,"plasma, 2 g daily, Day 42",-6.0 µg/g
same,DPAn-3 Mean change from Baseline,"plasma, 2 g daily, Day 42",19.3 µg/g
same,EPA Mean change from Baseline,"plasma, 2 g daily, Day 42",133.4 µg/g
same,EPA/AA Mean change from Baseline,"plasma, 2 g daily, Day 42",0.7
same,"AA LS Mean, 1 or 2 g versus 4 g","plasma, 2 g versus 4 g",15.6 µg/g
same,"DGLA LS Mean, 1 or 2 g versus 4 g","plasma, 2 g versus 4 g",2.5 µg/g
same,"DHA LS Mean, 1 or 2 g versus 4 g","plasma, 2 g versus 4 g",1.5 µg/g
same,"DPAn-3 LS Mean, 1 or 2 g versus 4 g","plasma, 2 g versus 4 g",-9.5 µg/g
same,"EPA LS Mean, 1 or 2 g versus 4 g","plasma, 2 g versus 4 g",-60.9 µg/g
same,"EPA/AA LS Mean, 1 or 2 g versus 4 g","plasma, 2 g versus 4 g",−0.41
same,AA Mean (SD) at Baseline,[3],220.9 (42.80) μg/g
same,DGLA Mean at Baseline,[3],57.1 µg/g
same,DHA Mean at Baseline,[3],78.8 µg/g
same,DPAn-3 Mean at Baseline,[3],21.7 µg/g
same,EPA Mean at Baseline,[3],49.1 µg/g
same,EPA/AA Mean (SD) at Baseline,[3],0.2 (0.07)
same,AA Mean (SD) change from Baseline,"plasma, 4 g daily, Day 14",−27.2 (28.89) μg/g
same,DGLA Mean change from Baseline,"plasma, 4 g daily, Day 14",-22.9 µg/g
same,DHA Mean change from Baseline,"plasma, 4 g daily, Day 14",-10.3 µg/g
same,DPAn-3 Mean change from Baseline,"plasma, 4 g daily, Day 14",24.5 µg/g
same,EPA Mean change from Baseline,"plasma, 4 g daily, Day 14",207.7 µg/g
same,EPA/AA Mean (SD) change from Baseline,"plasma, 4 g daily, Day 14",1.1 (0.28)
same,AA Mean (SD) change from Baseline,"plasma, 4 g daily, Day 28",−43.7 (32.24) μg/g
same,DGLA Mean change from Baseline,"plasma, 4 g daily, Day 28",-24.2 µg/g
same,DHA Mean change from Baseline,"plasma, 4 g daily, Day 28",-13.5 µg/g
same,DPAn-3 Mean change from Baseline,"plasma, 4 g daily, Day 28",29.7 µg/g
same,EPA Mean change from Baseline,"plasma, 4 g daily, Day 28",215.2 µg/g
same,EPA/AA Mean (SD) change from Baseline,"plasma, 4 g daily, Day 28",1.3 (0.42)
same,AA Mean (SD) change from Baseline,"plasma, 4 g daily, Day 42",−48.3 (22.20) μg/g
same,DGLA Mean change from Baseline,"plasma, 4 g daily, Day 42",-22.5 µg/g
same,DHA Mean change from Baseline,"plasma, 4 g daily, Day 42",-13.8 µg/g
same,DPAn-3 Mean change from Baseline,"plasma, 4 g daily, Day 42",32.0 µg/g
same,EPA Mean change from Baseline,"plasma, 4 g daily, Day 42",204.6 µg/g
same,EPA/AA Mean (SD) change from Baseline,"plasma, 4 g daily, Day 42",1.3 (0.45)
